Experimental data as given in patent publication US9604996B2 (Bayer Pharma Aktiengesellschaft, priority 2013, dated 2017).

What was measured:
[1] = molecular target: T1, human adenosine A2b receptor (Homo sapiens, UniProt P29275); experiment: Cellular reporter gene (CRE-luciferase) A2b receptor antagonist assay in recombinant CHO-K1 cells stimulated with NECA; type: cell-based; conditions: recombinant CHO-K1 cell line, co-incubation with EC50 concentration of NECA, 3 hours, in some cases means, rounded to two significant digits
T1 construct: expressed in transfected cells; host or cells: CHO-K1 (Chinese Hamster Ovary) with CRE-luciferase reporter
T1 sequence (P29275 1-332): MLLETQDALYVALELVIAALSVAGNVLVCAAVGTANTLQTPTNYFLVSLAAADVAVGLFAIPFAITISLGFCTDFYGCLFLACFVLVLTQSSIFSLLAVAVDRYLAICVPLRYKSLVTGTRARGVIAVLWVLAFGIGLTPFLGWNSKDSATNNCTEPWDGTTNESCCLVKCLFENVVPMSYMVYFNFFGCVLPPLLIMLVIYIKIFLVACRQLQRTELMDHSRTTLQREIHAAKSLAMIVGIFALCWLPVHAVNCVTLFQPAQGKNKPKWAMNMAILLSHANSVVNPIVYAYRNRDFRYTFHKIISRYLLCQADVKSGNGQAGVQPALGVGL
Procedure, shortened: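 CHO-K1 cells expressing human A2b receptor with a CRE-driven firefly luciferase reporter, co-incubated with test compound and NECA at its same-day EC50 concentration. Luminescence read 3 hours after NECA addition.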

[2] = tested on: IL-6 release by human fibroblast cell line LL29; experiment: NECA-induced IL-6 release by LL29 fibroblasts (ELISA); type: cell-based; conditions: NECA 10 μM, 24 hours incubation, IL-6 ELISA of supernatant, in some cases means, rounded to two significant digits
Procedure: B-2. Measurement of NECA-Induced IL-6 Release by LL29 Fibroblasts
Stimulation of fibroblasts with adenosine or the adenosine analog 5′-N-ethylcarboxamidoadenosine (NECA) leads to release of the pro-inflammatory and pro-fibrotic cytokine IL-6 which can be prevented by inhibition of the A2b receptor.
Accordingly, confluent cells of the human fibroblast cell line LL29 were treated with the test substances and stimulated with NECA (10 μM). After an incubation time of 24 hours, the cell supernatant is removed and human IL-6 in the cell supernatant is determined by ELISA (Quantikine® IL6 ELISA, R&D Systems, Minneapolis, USA).

IC50 [1] [nM]	SMILES	IC50 [2] [nM]
44	Cc1c(C(=O)N2CCC(O)CC2)sc2c1c(=O)n(CCc1ccccc1)c(=O)n2CCC=C(F)F [Example 2, 1-(4,4-Difluorobut-3-en-1-yl)-6-[(4-hydroxypiperidin-1-yl)carbonyl]-5-methyl-3-(2-phenylethyl)thieno[2,3-d]pyrimidine-2,4(1H,3H)-dione]	53
13	Cc1c(C(=O)N2CCC(O)CC2)sc2c1c(=O)n(CCc1ccccc1Cl)c(=O)n2CCC(F)(F)F [Example 6, 3-[2-(2-Chlorophenyl)ethyl]-6-[(4-hydroxypiperidin-1-yl)carbonyl]-5-methyl-1-(3,3,3-trifluoropropyl)thieno [2,3-d]pyrimidine-2,4(1H,3H)-dione]	27
13	O=C(c1sc2c(c1C(F)(F)F)c(=O)n(CCc1ccccc1)c(=O)n2CCC(F)(F)F)N1CCC(O)CC1 [Example 24, 6-[(4-Hydroxypiperidin-1-yl)carbonyl]-3-(2-phenylethyl)-5-(trifluoromethyl)-1-(3,3,3-trifluoropropyl)thieno[2,3-d]pyrimidine-2,4(1H,3H)-dione]	10
110	Cc1c(C(=O)N2CCNC(=O)C2)sc2c1c(=O)n(CCc1ccccc1Cl)c(=O)n2CCC=C(F)F [Example 32, 3-[2-(2-Chlorophenyl)ethyl]-1-(4,4-difluorobut-3-en-1-yl)-5-methyl-6-[(3-oxopiperazin-1-yl)carbonyl]thieno[2,3-d]pyrimidine-2,4(1H,3H)-dione]	230
310	CCn1c(=O)c2c(C)c(C(=O)N3CCC(O)CC3)sc2n(CCC(F)=C(F)F)c1=O [Example 136, 3-Ethyl-6-[(4-hydroxypiperidin-1-yl)carbonyl]-5-methyl-1-(3,4,4-trifluorobut-3-en-1-yl)thieno[2,3-d]pyrimidine-2,4(1H,3H)-dione]	–
15	CC(C)Cn1c(=O)c2c(C(F)F)c(C(=O)N3CCC(C)(O)CC3)sc2n(CCOC(F)(F)F)c1=O [Example 138, 5-(Difluoromethyl)-6-[(4-hydroxy-4-methylpiperidin-1-yl)carbonyl]-3-isobutyl-1-[2-(trifluoromethoxy)ethyl]thieno[2,3-d]pyrimidine-2,4(1H,3H)-dione]	–
39	CC(C)Cn1c(=O)c2c(C(F)F)c(C(=O)N3CCC(O)CC3)sc2n(CCC(F)(F)F)c1=O [Example 139, 5-(Difluoromethyl)-6-[(4-hydroxypiperidin-1-yl)carbonyl]-3-isobutyl-1-(3,3,3-trifluoropropyl)thieno[2,3-d]pyrimidine-2,4(1H,3H)-dione]	–
9.8	CCCn1c(=O)c2c(C(F)F)c(C(=O)N3CCC(O)CC3)sc2n(CCOC(F)(F)F)c1=O [Example 150, 5-(Difluoromethyl)-6-[(4-hydroxypiperidin-1-yl)carbonyl]-3-propyl-1-[2-(trifluoromethoxy)ethyl]thieno[2,3-d]pyrimidine-2,4(1H,3H)-dione]	–

Further lines, the compound ahead of its results:

SMILES	IC50 [1] [nM]	IC50 [2] [nM]
Cc1c(C(=O)N2CCC(O)CC2)sc2c1c(=O)n(CCc1ccccc1)c(=O)n2CCC(F)(F)F [Example 1, 6-[(4-Hydroxypiperidin-1-yl)carbonyl]-5-methyl-3-(2-phenylethyl)-1-(3,3,3-trifluoropropyl)thieno[2,3-d]pyrimidine-2,4(1H,3H)-dione]	37	59
Cc1c(C(=O)N2CCC(O)CC2)sc2c1c(=O)n(CCc1ccccc1F)c(=O)n2CCC(F)(F)F [Example 4, 3-[2-(2-Fluorophenyl)ethyl]-6-[(4-hydroxypiperidin-1-yl)carbonyl]-5-methyl-1-(3,3,3-trifluoropropyl)thieno[2,3-d]pyrimidine-2,4(1H,3H)-dione]	25	39
Cc1ccccc1CCn1c(=O)c2c(C)c(C(=O)N3CCC(O)CC3)sc2n(CCC(F)(F)F)c1=O [Example 8, 6-[(4-Hydroxypiperidin-1-yl)carbonyl]-5-methyl-3-[2-(2-methylphenyl)ethyl]-1-(3,3,3-trifluoropropyl)thieno[2,3-d]pyrimidine-2,4(1H,3H)-dione]	20	34
Cc1c(C(=O)N2CCC(O)CC2)sc2c1c(=O)n(CCc1cccnc1)c(=O)n2CCC=C(F)F [Example 16, 1-(4,4-Difluorobut-3-en-1-yl)-6-[(4-hydroxypiperidin-1-yl)carbonyl]-5-methyl-3-[2-(pyridin-3-yl)ethyl]thieno[2,3-d]pyrimidine-2,4(1H,3H)-dione]	38	89
CCn1c(=O)c2c(C)c(C(=O)N3CCC(O)CC3)sc2n(CCC(F)(F)F)c1=O [Example 18, 3-Ethyl-6-[(4-hydroxypiperidin-1-yl)carbonyl]-5-methyl-1-(3,3,3-trifluoropropyl)thieno[2,3-d]pyrimidine-2,4(1H,3H)-dione]	57	170
CCn1c(=O)c2c(C)c(C(=O)N3CCC(C)(O)CC3)sc2n(CCC(F)(F)F)c1=O [Example 21, 3-Ethyl-6-[(4-hydroxy-4-methylpiperidin-1-yl)carbonyl]-5-methyl-1-(3,3,3-trifluoropropyl)thieno [2,3-d]pyrimidine-2,4(1H,3H)-dione]	25	69
Cc1c(C(=O)N2CCNC(=O)C2)sc2c1c(=O)n(CCc1ccccc1)c(=O)n2CCC(F)(F)F [Example 26, 5-Methyl-6-[(3-oxopiperazin-1-yl)carbonyl]-3-(2-phenylethyl)-1-(3,3,3-trifluoropropyl)thieno[2,3-d]pyrimidine-2,4(1H,3H)-dione]	17	53
Cc1c(C(=O)N2CCNC(=O)C2)sc2c1c(=O)n(CCc1ccccc1F)c(=O)n2CCC(F)(F)F [Example 29, 3-[2-(2-Fluorophenyl)ethyl]-5-methyl-6-[(3-oxopiperazin-1-yl)carbonyl]-1-(3,3,3-trifluoropropyl)thieno[2,3-d]pyrimidine-2,4(1H,3H)-dione]	21	23
Cc1c(C(=O)N2CCNC(=O)C2)sc2c1c(=O)n(CCc1ccccc1Cl)c(=O)n2CCC(F)(F)F [Example 31, 3-[2-(2-Chlorophenyl)ethyl]-5-methyl-6-[(3-oxopiperazin-1-yl)carbonyl]-1-(3,3,3-trifluoropropyl)thieno[2,3-d]pyrimidine-2,4(1H,3H)-dione]	16	16
CC(C)Cn1c(=O)c2c(C(F)F)c(C(=O)N3CCC(O)CC3)sc2n(CCOC(F)(F)F)c1=O [Example 137, 5-(Difluoromethyl)-6-[(4-hydroxypiperidin-1-yl)carbonyl]-3-isobutyl-1-[2-(trifluoromethoxy)ethyl]thieno[2,3-d]pyrimidine-2,4(1H,3H)-dione]	12	–
CC(C)Cn1c(=O)c2c(C(F)F)c(C(=O)N3CCC(C)(O)CC3)sc2n(CCC(F)(F)F)c1=O [Example 140, 5-(Difluoromethyl)-6-[(4-hydroxy-4-methylpiperidin-1-yl)carbonyl]-3-isobutyl-1-(3,3,3-trifluoropropyl)thieno[2,3-d]pyrimidine-2,4(1H,3H)-dione]	39	–
CCCn1c(=O)c2c(C(F)F)c(C(=O)N3CCC(O)CC3)sc2n(CCC(F)(F)F)c1=O [Example 141, 5-(Difluoromethyl)-6-[(4-hydroxypiperidin-1-yl)carbonyl]-3-propyl-1-(3,3,3-trifluoropropyl)thieno[2,3-d]pyrimidine-2,4(1H,3H)-dione]	57	–
CCCn1c(=O)c2c(C(F)F)c(C(=O)N3CCC(C)(O)CC3)sc2n(CCC(F)(F)F)c1=O [Example 142, 5-(Difluoromethyl)-6-[(4-hydroxy-4-methylpiperidin-1-yl)carbonyl]-3-propyl-1-(3,3,3-trifluoropropyl)thieno[2,3-d]pyrimidine-2,4(1H,3H)-dione]	53	–
CCn1c(=O)c2c(CF)c(C(=O)N3CCC(O)CC3)sc2n(CCC(F)(F)F)c1=O [Example 143, 3-Ethyl-5-(fluoromethyl)-6-[(4-hydroxypiperidin-1-yl)carbonyl]-1-(3,3,3-trifluoropropyl)thieno[2,3-d]pyrimidine-2,4(1H,3H)-dione]	82	–
CCn1c(=O)c2c(CF)c(C(=O)N3CCC(C)(O)CC3)sc2n(CCC(F)(F)F)c1=O [Example 144, 3-Ethyl-5-(fluoromethyl)-6-[(4-hydroxy-4-methylpiperidin-1-yl)carbonyl]-1-(3,3,3-trifluoropropyl)thieno[2,3-d]pyrimidine-2,4(1H,3H)-dione]	170	–
CCCn1c(=O)c2c(C(F)F)c(C(=O)N3CCC(C)(O)CC3)sc2n(CCOC(F)(F)F)c1=O [Example 151, 5-(Difluoromethyl)-6-[(4-hydroxy-4-methylpiperidin-1-yl)carbonyl]-3-propyl-1-[2-(trifluoromethoxy)ethyl]thieno[2,3-d]pyrimidine-2,4(1H,3H)-dione]	14	–
